Measured values taken from PubChem BioAssay (NCI).
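96-well plates; 48 h exposure; 5 concentrations. Endpoints by linear interpolation between flanking doses. Not reached: highest tested concentration assigned. GI50 is the concentration that inhibits growth by half. TGI is the concentration that stops growth completely.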

Columns and labels:
Experiment in all cases: DTP human tumour cell line panel, 48 h
A549 NSCLC = system: A549 NSCLC
OVCAR-4 ovarian = system: OVCAR-4 ovarian
T-47D breast = system: T-47D breast
MDA-MB-435 = system: MDA-MB-435
SK-MEL-28 melanoma = system: SK-MEL-28 melanoma
UACC-62 melanoma = system: UACC-62 melanoma
MDA-N = system: MDA-N
CCRF-CEM leukemia = system: CCRF-CEM leukemia
SF-268 CNS = system: SF-268 CNS

SMILES	TGI (A549 NSCLC) [µM]	TGI (OVCAR-4 ovarian) [µM]	TGI (T-47D breast) [µM]	TGI (MDA-MB-435) [µM]	TGI (SK-MEL-28 melanoma) [µM]	TGI (UACC-62 melanoma) [µM]	TGI (MDA-N) [µM]	TGI (CCRF-CEM leukemia) [µM]	TGI (SF-268 CNS) [µM]	GI50 (A549 NSCLC) [µM]	GI50 (OVCAR-4 ovarian) [µM]	GI50 (T-47D breast) [µM]	GI50 (MDA-MB-435) [µM]	GI50 (SK-MEL-28 melanoma) [µM]	GI50 (UACC-62 melanoma) [µM]	GI50 (MDA-N) [µM]	GI50 (CCRF-CEM leukemia) [µM]	GI50 (SF-268 CNS) [µM]
CCOC(=O)c1cc(I)c(-c2cc(C)no2)n1C	> 100	75	> 100	> 100	> 100	> 100	> 100	> 100	> 100	–	–	–	–	–	–	–	–	–
O=C(CCCCCCCCC(=O)N1C(=O)CC(=O)N(c2ccccc2)C1=S)N1C(=O)CC(=O)N(c2ccccc2)C1=S	> 100	> 100	> 100	> 100	–	> 100	> 100	> 100	> 100	–	–	–	–	–	–	–	–	–
COc1cc(C2=NNC(=O)c3ccccc3N2c2nc(-c3cccs3)nc3ccc(Br)cc23)cc(OC)c1OC	> 100	86.4	> 100	68.5	32.3	> 100	–	> 100	58.4	–	–	–	–	–	–	–	–	–
C=CCN1C(=O)/C(=C/c2ccco2)N=C1SC1OC(COC(C)=O)C(OC(C)=O)C(OC(C)=O)C1OC(C)=O (stereo not drawn)	–	> 100	–	> 100	> 100	> 100	–	–	–	–	–	–	–	–	–	–	–	–
C[n+]1c(-c2ccc(/C=N/Nc3ccnc(N/N=C/c4ccc(-c5cn6ccsc6[n+]5C)cc4)n3)cc2)cn2ccsc21	91.2	> 100	–	40.1	–	> 100	38.6	44.2	–	–	–	–	–	–	–	–	–	–
CCOP(=O)(OCC)C(c1ccccc1)N(C(=O)NC(F)(F)F)c1cccc(F)c1 (stereo not drawn)	> 100	–	–	> 100	> 100	–	> 100	> 100	> 100	–	–	–	–	–	–	–	–	–
Nc1ccccc1.[C-]#[O+].[C-]#[O+].[C-]#[O+].[C-]#[O+].[C-]#[O+].[Cr]	> 10	> 10	> 10	> 10	> 10	9.64	> 10	> 10	> 10	5.18	6.7	2.62	3.67	4.52	2.42	3.53	2.93	6.56
O=C1Nc2ccccc2Cn2c1cc1oc(-c3ccccc3)cc12	> 100	> 100	92.6	> 100	> 100	> 100	> 100	> 100	72.3	–	–	–	–	–	–	–	–	–
O=C(CCCCCC(=O)N1CC(CCl)c2ccc([N+](=O)[O-])cc21)N1CC(CCl)c2ccc([N+](=O)[O-])cc21 (stereo not drawn)	–	> 100	> 100	> 100	–	> 100	> 100	> 100	> 100	–	–	–	–	–	–	–	–	–
Cc1cn(CCCCCCC2=NCCCN2)c(=O)[nH]c1=O	> 100	> 100	> 100	> 100	> 100	> 100	> 100	> 100	> 100	–	–	–	–	–	–	–	–	–
CC(=O)OCc1cncn1S(=O)(=O)c1ccc(C)cc1	> 100	> 100	> 100	> 78.9	> 100	> 100	45.6	> 100	> 100	–	–	–	–	–	–	–	–	–
